Where only a bound is given, the exact number is not on record here.

Common to all, as to format: in vivo
For data set [1], the system named is Cowpea Aphid (Aphis Craccivora). As to the kind of experiment: Cowpea aphid spray test on potted cowpea plants. Particulars: sprayed cowpea plants, assessed after 72 hours, read-out: mortality in comparison with untreated controls. The protocol: (§1) The active compound was dissolved at the desired concentration in a mixture of 1:1 (vol:vol) distilled water:acetone. Surfactant (Alkamuls® EL 620) is added at a rate of 0.1% (vol/vol). The test solution was prepared at the day of use.
Potted cowpea plants were colonized with approximately 50-100 aphids of various stages by manually transferring a leaf tissue cut from infested plant 24 hours before application. Plants were sprayed after the pest population has been recorded. Treated plants were maintained on light carts at about 28° C. Percent mortality was assessed after 72 hours.

Data set [2] relates to Diamond Back Moth (Plutella Xylostella). Kind of data set: Diamond back moth cabbage leaf dip test. The conditions noted are these: foliar, dipped cabbage leaves, 3rd instar larvae, 72 hours after treatment, read-out: mortality in comparison with untreated controls. The protocol: as §1
Leaves of cabbage were dipped in test solution and air-dried. Treated leaves were placed in petri dishes lined with moist filter paper and inoculated with ten 3rd instar larvae. Mortality was recorded 72 hours after treatment. Feeding damages were also recorded using a scale of 0-100%.

In data set [3] the test system is Mediterranean fruitfly (Ceratitis capitata). As to the kind of experiment: Mediterranean fruitfly microtiter plate insect diet test. The conditions noted are these: 120 h, egg and larval mortality after 5 days, read-out: mortality in comparison with untreated controls. As for the experimental part: For evaluating control of Mediterranean fruitfly (Ceratitis capitata) the test unit consisted of microtiter plates containing an insect diet and 50-80 C. capitata eggs.
(§2) The compounds were formulated using a solution containing 75% v/v water and 25% v/v DMSO. Different concentrations of formulated compounds were sprayed onto the insect diet at 5 μl, using a custom built micro atomizer, at two replications.
After application, microtiter plates were incubated at about 28±1° C. and about 80±5% relative humidity for 5 days. Egg and larval mortality was then visually assessed.

Data set [4] concerns Orchid Thrips (Dichromothrips Corbetti). Kind of data set: Orchid thrips floral-immersion test. The conditions noted are these: adult thrips on dipped orchid flowers, 72 hours after treatment, read-out: mortality in comparison with untreated controls. The protocol:
Dichromothrips corbetti adults used for bioassay are obtained from a colony maintained continuously under laboratory conditions. For testing purposes, the test compound was diluted in a 1:1 mixture of acetone:water (vol:vol), plus 0.01% vol/vol Alkamuls® EL 620 surfactant.
Thrips potency of each compound was evaluated by using a floral-immersion technique. Plastic petri dishes were used as test arenas. All petals of individual, intact orchid flowers are dipped into treatment solution and allowed to dry. Treated flowers were placed into individual petri dishes along with −about 20 adult thrips. The petri dishes were then covered with lids. All test arenas were held under continuous light and a temperature of about 28° C. for duration of the assay. After 3 days, the numbers of live thrips were counted on each flower, and along inner walls of each petri dish. The percent mortality was recorded 72 hours after treatment.

Data set [5] relates to Southern Armyworm (Spodoptera Eridania). As to the kind of experiment: Southern armyworm lima bean plant spray test. The conditions noted are these: 96 h, larvae on sprayed lima bean plants, 4 days after treatment, read-out: mortality in comparison with untreated controls. As for the experimental part:
(§3) The active compounds were formulated in cyclohexanone as a 10,000 ppm solution supplied in tubes. The tubes were inserted into an automated electrostatic sprayer equipped with an atomizing nozzle and they served as stock solutions for which lower dilutions were made in 50% acetone:50% water (v/v). A nonionic surfactant (Kinetic®) was included in the solution at a volume of 0.01% (v/v).
(§4) Lima bean plants (variety Sieva) were grown 2 plants to a pot and selected for treatment at the 1st true leaf stage. Test solutions were sprayed onto the foliage by an automated electrostatic plant sprayer equipped with an atomizing spray nozzle. The plants were dried in the sprayer fume hood and then removed from the sprayer. Each pot was placed into perforated plastic bags with a zip closure. About 10 to 11 armyworm larvae were placed into the bag and the bags zipped closed. Test plants were maintained in a growth room at about 25° C. and about 20-40% relative humidity for 4 days, avoiding direct exposure to fluorescent light (24 hour photoperiod) to prevent trapping of heat inside the bags. Mortality and reduced feeding were assessed 4 days after treatment, compared to untreated control plants.

The test system of data set [6] is vetch aphid (Megoura viciae). As to the kind of experiment: Vetch aphid broad bean leaf disk microtiter test. Particulars: foliar, 120 h, adult aphids on broad bean leaf disks, 5 days, read-out: mortality in comparison with untreated controls. As for the experimental part:
For evaluating control of vetch aphid (Megoura viciae) through contact or systemic means the test unit consisted of 24-well-microtiter plates containing broad bean leaf disks.
The compounds were formulated using a solution containing 75% v/v water and 25% v/v DMSO. Different concentrations of formulated compounds were sprayed onto the leaf disks at 2.5 μl, using a custom built micro atomizer, at two replications.
After application, the leaf disks were air-dried and 5-8 adult aphids placed on the leaf disks inside the microtiter plate wells. The aphids were then allowed to suck on the treated leaf disks and incubated at about 23±1° C. and about 50±5% relative humidity for 5 days. Aphid mortality and fecundity was then visually assessed.

Data set [7] concerns Tobacco Budworm (Heliothis Virescens). As to the kind of experiment: Tobacco budworm cotton plant spray test. The conditions noted are these: 96 h, larvae on sprayed cotton plants, 4 days after treatment, read-out: mortality in comparison with untreated controls. As for the experimental part: as §3
as §4, with “Cotton” for “Lima bean”, “plants” for “plants (variety Sieva)”, “cotyledon” for “1st true leaf”, “budworm” for “armyworm”

Data set [8] deals with boll weevil (Anthonomus grandis). Kind of data set: Boll weevil microtiter plate insect diet test. Particulars: 120 h, egg and larval mortality after 5 days, read-out: mortality in comparison with untreated controls. As for the experimental part: For evaluating control of boll weevil (Anthonomus grandis) the test unit consisted of 96-well-microtiter plates containing an insect diet and 5-10 A. grandis eggs.
as §2
After application, microtiter plates were incubated at about 25±1° C. and about 75±5% relative humidity for 5 days. Egg and larval mortality was then visually assessed.

Data set [9] deals with Colorado Potato Beetle (Leptinotarsa Decemlineata). As to the kind of experiment: Colorado potato beetle eggplant foliage spray test. Particulars: foliar, 96 h, beetle larvae on sprayed eggplant foliage, 4 days after treatment, read-out: mortality in comparison with untreated controls. As for the experimental part: as §3
Eggplants were grown 2 plants to a pot and were selected for treatment at the 1st true leaf stage. Test solutions were sprayed onto the foliage by an automated electrostatic plant sprayer equipped with an atomizing spray nozzle. The plants were dried in the sprayer fume hood and then removed from the sprayer. The treated foliage was then cut and removed from the pot and placed in a Petri dish lined with moistened filter paper. Five beetle larvae were introduced into each Petri dish and the dish was covered by a Petri dish lid. Petri dishes were maintained in a growth room at about 25° C. and about 20-40% relative humidity for 4 days, avoiding direct exposure to fluorescent light (24 hour photoperiod) to prevent trapping of heat inside the dishes. Mortality and reduced feeding were assessed 4 days after treatment, compared to untreated control plants.

Data set [10] concerns Silverleaf Whitefly (Bemisia Argentifolii). Kind of data set: Silverleaf whitefly cotton plant spray test. Particulars: 300 ppm; whitefly adults on sprayed cotton plants; 3 days after treatment.
Source text: as §3
Cotton plants at the cotyledon stage (one plant per pot) were sprayed by an automated electrostatic plant sprayer equipped with an atomizing spray nozzle. The plants were dried in the sprayer fume hood and then removed from the sprayer. Each pot was placed into a plastic cup and about 10 to 12 whitefly adults (approximately 3-5 days old) were introduced. The insects were collected using an aspirator and a nontoxic Tygon® tubing connected to a barrier pipette tip. The tip, containing the collected insects, was then gently inserted into the soil containing the treated plant, allowing insects to crawl out of the tip to reach the foliage for feeding. Cups were covered with a reusable screened lid. Test plants were maintained in a growth room at about 25° C. and about 20-40% relative humidity for 3 days, avoiding direct exposure to fluorescent light (24 hour photoperiod) to prevent trapping of heat inside the cup. Mortality was assessed 3 days after treatment, compared to untreated control plants.

Usually mortality stands for the share of the test organisms that died. As to `Cc1cc(Cl)cc(C(=O)/N=S2/CCSC2)c1NC(=O)c1cnn(CC(F)(F)F)c1-c1ncccc1Cl` (stereo not shown) [Compound 1-1, N-[4-chloro-2-((Z)-1,3-dithiolan-1-ylidenecarbamoyl)-6-methyl-phenyl]-5-(3-chloro-2-pyridyl)-1-(2,2,2-trifluoroethyl)pyrazole-4-carboxamide], the mortality at 300 ppm in data set [1], in [2], in data set [4], in data set [5] and in [9] was at least 75% throughout. Further, the mortality at 2500 ppm in [3], in [6], in data set [7] and in data set [8] was at least 75% throughout.

For the molecule `Cc1cc(Cl)cc(C(=O)N=S(C(C)C)C(C)C)c1NC(=O)c1cnn(CC(F)(F)F)c1-c1ncccc1Cl` [Compound 1-2], the “mortality in comparison with untreated controls” value in data set [10] is “at least 75%”.

The values above are taken from patent publication US20140162875A1, “N-Thio-Anthranilamide Compounds and Their Use as Pesticides” (BASF SE, priority 2011, published 2014).
